Data set [1] addresses Xanthine dehydrogenase/oxidase (Bos taurus, UniProt P80457). In words: Inhibition of bovine milk xanthine oxidase using xanthine as substrate preincubated for 30 mins followed by substrate addition by absorbance based analysis.
Data set [2] deals with Rattus norvegicus. In words: Anti-hyperuricemia effect in PO-induced hyperuricemia Sprague-Dawley rat model assessed as decrease in serum uric acid level at 10 mg/kg, po measured after 2 hrs. In kind it is functional, organism-based.
Data set [3] is described as follows: Effect on serum creatinine level in PO-induced hyperuricemia Sprague-Dawley rat model at 10 mg/kg, po measure upto 8 hrs. It counts as toxicity, organism-based. The settings on record: in vivo.
The nature of data set [4]: Effect on serum AST/ALT ratio in PO-induced hyperuricemia Sprague-Dawley rat model at 10 mg/kg, po measure upto 8 hrs. It counts as toxicity, organism-based. The settings on record: in vivo.
Data set [5] has as its target T1, Xanthine dehydrogenase/oxidase (Homo sapiens, UniProt P47989). In words: Reversible inhibition of xanthine oxidase (unknown origin) using xanthine as substrate by absorbance based analysis.
The target of data set [6] is T1, Xanthine dehydrogenase/oxidase. In words: Mixed-type inhibition of xanthine oxidase (unknown origin) using xanthine as substrate by absorbance based analysis.
Data set [7] is described as follows: Cytotoxicity in mouse AML12 cells assessed as cell viability at 20 uM incubated for 24 hrs by MTT assay relative to control. It counts as toxicity, cell-based. As to conditions: read-out: Activity. (Formazan colour is commonly taken as a measure of viable cells.)
Data set [8] in a line: Cytotoxicity in mouse AML12 cells assessed as cell viability at 1 to 10 uM incubated for 24 hrs by MTT assay relative to control. As to conditions: dose 1-10 µM, read-out: Activity. It counts as toxicity, cell-based.
In the next data set the test system is AML12. Put plainly: Cytotoxicity in mouse AML12 cells at 1 to 20 uM incubated for 24 hrs by MTT assay. It counts as toxicity, cell-based. As to conditions: aml12, 24 h, dose 1-20 µM.
Data set [9] has as its system Rattus norvegicus. Put plainly: Anti-hyperuricemia effect in PO-induced hyperuricemia Sprague-Dawley rat model assessed as decrease in serum uric acid level at 10 mg/kg, po measured for 1 to 6 hrs. In kind it is functional, organism-based. The settings on record: time 1-6 hrs.
The test system of data set [10] is Rattus norvegicus. Put plainly: Anti-hyperuricemia effect in PO-induced hyperuricemia Sprague-Dawley rat model assessed as decrease in serum uric acid level at 10 to 40 mg/kg, po measured after 2 hrs. It counts as functional, organism-based. As to conditions: dose 10-40 mg/kg.
Data set [11] is described as follows: Effect on serum creatinine level in PO-induced hyperuricemia Sprague-Dawley rat model at 10 to 40 mg/kg, po measure upto 8 hrs. The settings on record: in vivo, dose 10-40 mg/kg. It counts as toxicity, organism-based.
The nature of data set [12]: Effect on BUN level in PO-induced hyperuricemia Sprague-Dawley rat model at 10 to 40 mg/kg, po measure upto 8 hrs. As to conditions: in vivo, dose 10-40 mg/kg. It counts as toxicity, organism-based.
Data set [13] is described as follows: Effect on serum AST/ALT ratio in PO-induced hyperuricemia Sprague-Dawley rat model at 10 to 40 mg/kg, po measure upto 8 hrs. In kind it is toxicity, organism-based. As to conditions: in vivo, dose 10-40 mg/kg.
Data set [14] deals with T1, Xanthine dehydrogenase/oxidase. In words: Inhibition of xanthine oxidase (unknown origin) using xanthine as substrate preincubated for 20 mins followed by substrate addition measured for 5 mins by absorbance based analysis.
The target is the same in data set [15]. Put plainly: Inhibition of xanthine oxidase (unknown origin).

The source of these data is ChEMBL document CHEMBL6127091, “Design, synthesis, and evaluation of chalcone derivatives as xanthine oxidase inhibitors” (Eur J Med Chem, 2024).

The structures appear in SMILES notation. The source made the active and inactive calls. No cut-off for these calls is given here.

T1 sequence (P47989 whole entry): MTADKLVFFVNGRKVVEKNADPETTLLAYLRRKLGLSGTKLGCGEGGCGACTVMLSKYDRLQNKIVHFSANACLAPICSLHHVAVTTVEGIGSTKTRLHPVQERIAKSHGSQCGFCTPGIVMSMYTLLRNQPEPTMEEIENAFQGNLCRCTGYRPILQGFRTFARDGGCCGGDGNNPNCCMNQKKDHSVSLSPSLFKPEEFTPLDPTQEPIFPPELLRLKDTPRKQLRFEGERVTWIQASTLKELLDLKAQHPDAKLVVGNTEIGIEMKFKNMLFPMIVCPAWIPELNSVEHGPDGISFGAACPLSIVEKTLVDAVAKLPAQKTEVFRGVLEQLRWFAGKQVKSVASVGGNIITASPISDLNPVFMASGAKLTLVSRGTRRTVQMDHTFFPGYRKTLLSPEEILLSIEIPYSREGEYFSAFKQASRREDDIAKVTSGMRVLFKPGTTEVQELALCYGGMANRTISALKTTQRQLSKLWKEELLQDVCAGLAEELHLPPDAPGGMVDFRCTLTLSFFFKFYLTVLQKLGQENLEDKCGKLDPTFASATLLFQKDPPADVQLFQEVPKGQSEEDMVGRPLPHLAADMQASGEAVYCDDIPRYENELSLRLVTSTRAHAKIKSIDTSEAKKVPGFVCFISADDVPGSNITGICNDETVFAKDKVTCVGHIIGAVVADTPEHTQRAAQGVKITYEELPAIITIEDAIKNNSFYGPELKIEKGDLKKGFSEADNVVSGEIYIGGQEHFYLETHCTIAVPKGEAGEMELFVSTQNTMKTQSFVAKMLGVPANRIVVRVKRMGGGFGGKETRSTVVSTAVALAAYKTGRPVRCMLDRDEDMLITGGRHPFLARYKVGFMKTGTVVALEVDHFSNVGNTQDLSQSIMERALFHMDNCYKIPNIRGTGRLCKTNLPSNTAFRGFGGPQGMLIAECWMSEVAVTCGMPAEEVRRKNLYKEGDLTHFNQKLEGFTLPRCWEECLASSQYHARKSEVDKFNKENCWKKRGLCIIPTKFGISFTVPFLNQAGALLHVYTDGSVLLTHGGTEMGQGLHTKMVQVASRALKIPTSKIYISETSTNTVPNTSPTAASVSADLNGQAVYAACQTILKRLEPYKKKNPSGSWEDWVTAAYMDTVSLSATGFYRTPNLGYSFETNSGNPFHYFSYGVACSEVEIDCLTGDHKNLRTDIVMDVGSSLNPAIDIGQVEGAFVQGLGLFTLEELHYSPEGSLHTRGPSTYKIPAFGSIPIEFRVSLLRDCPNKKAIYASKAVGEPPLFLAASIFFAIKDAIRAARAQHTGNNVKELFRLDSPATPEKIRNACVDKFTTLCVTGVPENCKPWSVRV
Chain of Xanthine dehydrogenase/oxidase (Bos taurus, UniProt P80457) (P80457 whole entry): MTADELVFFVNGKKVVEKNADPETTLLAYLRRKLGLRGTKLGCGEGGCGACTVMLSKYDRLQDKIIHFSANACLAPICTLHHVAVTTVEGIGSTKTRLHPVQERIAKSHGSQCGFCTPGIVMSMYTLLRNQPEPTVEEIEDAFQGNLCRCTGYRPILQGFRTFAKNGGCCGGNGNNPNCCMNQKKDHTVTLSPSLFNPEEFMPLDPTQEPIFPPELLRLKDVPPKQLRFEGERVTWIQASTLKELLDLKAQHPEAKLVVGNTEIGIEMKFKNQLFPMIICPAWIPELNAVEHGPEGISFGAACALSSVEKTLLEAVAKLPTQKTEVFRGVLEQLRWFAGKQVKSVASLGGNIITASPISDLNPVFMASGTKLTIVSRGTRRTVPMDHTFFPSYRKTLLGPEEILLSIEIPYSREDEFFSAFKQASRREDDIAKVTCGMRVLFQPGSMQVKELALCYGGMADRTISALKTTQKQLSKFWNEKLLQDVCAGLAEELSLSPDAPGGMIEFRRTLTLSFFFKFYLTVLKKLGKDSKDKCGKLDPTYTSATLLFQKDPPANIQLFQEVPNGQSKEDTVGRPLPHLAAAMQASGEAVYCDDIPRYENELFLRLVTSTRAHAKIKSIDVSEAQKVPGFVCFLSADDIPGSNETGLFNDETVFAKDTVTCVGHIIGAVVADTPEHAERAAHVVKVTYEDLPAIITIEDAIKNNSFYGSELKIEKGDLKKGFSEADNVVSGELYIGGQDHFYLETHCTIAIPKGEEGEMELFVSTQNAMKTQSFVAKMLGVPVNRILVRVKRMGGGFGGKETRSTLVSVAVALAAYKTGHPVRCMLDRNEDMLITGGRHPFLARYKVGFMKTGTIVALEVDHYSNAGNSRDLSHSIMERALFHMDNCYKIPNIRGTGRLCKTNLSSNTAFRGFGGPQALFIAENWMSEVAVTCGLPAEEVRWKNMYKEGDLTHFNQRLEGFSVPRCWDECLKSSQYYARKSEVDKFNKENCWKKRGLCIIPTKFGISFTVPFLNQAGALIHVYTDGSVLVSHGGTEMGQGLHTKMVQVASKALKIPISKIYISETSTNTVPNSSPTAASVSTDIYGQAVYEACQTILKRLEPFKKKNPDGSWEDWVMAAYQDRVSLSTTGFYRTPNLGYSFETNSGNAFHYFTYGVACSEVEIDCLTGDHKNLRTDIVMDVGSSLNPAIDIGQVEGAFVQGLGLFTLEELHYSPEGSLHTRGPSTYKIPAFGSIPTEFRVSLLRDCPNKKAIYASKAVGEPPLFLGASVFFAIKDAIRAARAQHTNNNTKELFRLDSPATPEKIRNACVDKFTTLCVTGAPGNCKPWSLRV

Regarding `C[S+]([O-])c1ccc(C(=O)/C=C/c2cc(C(=O)O)ccc2O)cc1` (configuration not stated), in data set [1], it took 311 nM to reach half-maximal inhibition (IC50). In the case of `O=C(O)c1ccc(O)c(/C=C/C(=O)c2ccc3ncccc3c2)c1`, the IC50 (as a rule, the point on the concentration scale where inhibition reaches its midpoint) in data set [1] came to 196 nM. As for `CS(=O)(=O)c1ccc(C(=O)/C=C/c2cc(C(=O)O)ccc2O)cc1`, the IC50 in data set [1] worked out at 109 nM. Still for that read-out and setting: as for `CCCCOc1ccc(C(=O)/C=C/c2cc(C(=O)O)ccc2O)cc1`, the figure is 294 nM. Turning to `Oc1ncnc2[nH]ncc12` [ALLOPURINOL], the outcome in the data set on Rattus norvegicus [2] was Active. Also, the figures for the Activity result in data set [3] and in data set [4] were “Toxic” and “Non-Toxic”, respectively. The molecule `O=C(O)c1ccc(O)c(/C=C/C(=O)c2ccccc2)c1` registered an IC50 in data set [1] of 206 nM. With `C=CCOc1ccc(C(=O)/C=C/c2cc(C(=O)O)ccc2O)cc1`, half-maximal inhibition in [1] (IC50) was put at 404 nM. In data set [1], `C#Cc1ccc(C(=O)/C=C/c2cc(C(=O)O)ccc2O)cc1` yielded an IC50 of 127 nM. `O=C(O)c1ccc(O)c(/C=C/C(=O)c2ccc3c(c2)CCO3)c1` returned a half-maximal inhibitory concentration (IC50) in data set [1] of 155 nM. The same measure, in the same setting: as for `Cc1ccc(C(=O)/C=C/c2cc(C(=O)O)ccc2O)cc1`, the figure is 176 nM. Take `CCc1ccc(C(=O)/C=C/c2cc(C(=O)O)ccc2O)cc1`: half-maximal inhibition in [1] (IC50) was put at 84 nM. The “inhibition (INH)” value in data set [5] and in data set [6] was “Active” in each case. In [7], the viability at 24 h, 20 µM was 82.1%. Moreover, in data set [8], the viability at 24 h, up to 10 µM was above 90%. As for `O=C(O)c1ccc(O)c(/C=C/C(=O)c2ccccn2)c1`, the IC50 in [1] was determined as 307 nM. In other words, the sub-micromolar range. In turn, `O=C(O)c1ccc(O)c(/C=C/C(=O)c2ccc3c(c2)OCO3)c1` came in with a 50% inhibitory concentration (IC50) in [1] of 178 nM. Against the preceding molecule, the IC50 is about 1.7-fold lower. Molecule `O=C(O)c1ccc(O)c(/C=C/C(=O)c2nccs2)c1` gave a 50% inhibitory concentration (IC50) in data set [1] of 226 nM.

Take `CC(C)(C)c1ccc(C(=O)/C=C/c2cc(C(=O)O)ccc2O)cc1`: the half-maximal inhibitory concentration (IC50) in data set [1] is 555 nM. In [1], `CC(C)COc1ccc(C(=O)/C=C/c2cc(C(=O)O)ccc2O)cc1` displayed an IC50 of 306 nM. For the molecule `CNc1ccc(C(=O)/C=C/c2cc(C(=O)O)ccc2O)cc1`, the IC50 in data set [1] worked out at 102 nM. The “inhibition (INH)” value in data set [5] and in [6] was “Active” throughout. Besides, the Activity entry (with AML12; in [11]; in [12]; in [13]) was “Non-Toxic” in each case. The outcome in the data set on Rattus norvegicus [9] and in the data set on Rattus norvegicus [10] was Active. In [1], `CC1(C)CCSc2ccc(C(=O)/C=C/c3cc(C(=O)O)ccc3O)cc21` showed an IC50 of 368 nM. In other words, the sub-micromolar range. `O=C(O)c1ccc(O)c(/C=C/C(=O)c2cccnc2)c1` yielded an IC50 in [1] of 297 nM.

As for `O=C(O)c1ccc(O)c(/C=C/C(=O)c2ccc3c(c2)CCC3)c1`, the IC50 in [1] turned out to be 559 nM. Compared with the last molecule, the IC50 is about 1.9-fold higher. The same measure, in the same setting: as for `CN(C)c1ccc(C(=O)/C=C/c2cc(C(=O)O)ccc2O)cc1`, the figure is 117 nM. In turn, `CCOc1ccc(C(=O)/C=C/c2cc(C(=O)O)ccc2O)cc1` gave an IC50 in [1] of 484 nM.

Turning to `O=C(O)c1ccc(O)c(/C=C/C(=O)c2ccsc2)c1`, in data set [1], the IC50 amounted to 215 nM. In [1], `O=C(O)c1ccc(O)c(/C=C/C(=O)c2ccc3c(c2)OCCO3)c1` returned a half-maximal inhibitory concentration (IC50) of 185 nM. This IC50 and that of the molecule before are within 1.5-fold of each other. Regarding `C#CCOc1ccc(C(=O)/C=C/c2cc(C(=O)O)ccc2O)cc1`, in data set [1], the IC50 worked out at 274 nM. `O=C(O)c1ccc(O)c(/C=C/C(=O)c2ccncc2)c1` gave an IC50 in data set [1] of 309 nM. For `O=C(O)c1ccc(O)c(/C=C/C(=O)c2ccc3c(c2)CCN3)c1`, the IC50 in [1] amounted to 64 nM. Further, the “inhibition (INH)” value in [5] and in data set [6] was “Active” in each case. Further, the Activity result in the data set with AML12 is “Non-Toxic”. As for `COc1ccc(C(=O)/C=C/c2ccc(O)cc2)cc1`, the midpoint of inhibition in [14], the IC50, lay at 4500 nM. That is a single-digit micromolar value. `O=C(O)c1ccc(O)c(/C=C/C(=O)c2ccc3ccccc3c2)c1` displayed a half-inhibitory concentration (IC50) in data set [1] of 213 nM. On to `CCCOc1ccc(C(=O)/C=C/c2cc(C(=O)O)ccc2O)cc1`, for which the IC50 in [1] turned out to be 542 nM. As for `O=C(/C=C/c1ccc(O)cc1)c1ccc(O)c(O)c1`, the 50% inhibitory concentration (IC50) in data set [14] stood at 5600 nM. In data set [1], `CCCc1ccc(C(=O)/C=C/c2cc(C(=O)O)ccc2O)cc1` yielded an IC50 of 211 nM. This lies in the sub-micromolar range. With `COc1ccc(C(=O)/C=C/c2ccc(C(=O)O)cc2)cc1`, in data set [15], the concentration for half-maximal inhibition (IC50) stood at 100 nM. In other words, the sub-micromolar range. Turning to `CSc1ccc(C(=O)/C=C/c2cc(C(=O)O)ccc2O)cc1`, the midpoint of inhibition in data set [1], the IC50, lay at 193 nM. `CC(=O)c1ccc(C(=O)/C=C/c2cc(C(=O)O)ccc2O)cc1`: the half-maximal inhibitory concentration (IC50) in [1] is 248 nM. The molecule `O=C(O)c1ccc(O)c(/C=C/C(=O)c2ccc3[nH]ccc3c2)c1` registered an IC50 in data set [1] of 139 nM.

The molecule `COc1ccc(C(=O)/C=C/c2cc(C(=O)O)ccc2O)cc1` returned an IC50 in [1] of 266 nM. This IC50 lies about 1.9-fold higher than the previous one. For `O=C(O)c1ccc(O)c(/C=C/C(=O)c2cccc3ccccc23)c1`, half-maximal inhibition in data set [1] (IC50) required 222 nM. Turning to `O=C(O)c1ccc(O)c(/C=C/C(=O)c2cc[nH]c2)c1`, half-maximal inhibition in data set [1] (IC50) was put at 301 nM.

For `O=C(O)c1ccc(/C=C/C(=O)c2ccc(O)cc2)cc1`, it took 300 nM to reach half-maximal inhibition in data set [15] (IC50).
